The target in assay [1] is GDP-bound KRAS wild-type protein (Homo sapiens, UniProt P01116). The assay is described as follows: Binding to KRAS by surface plasmon resonance (SPR), Single Cycle Kinetics. To be noted: SPR, Single Cycle Kinetics, GDP-bound KRAS wild-type protein; read-out: KRAS KD.
Assay [2] has as its target GDP-bound NRAS wild-type protein (Homo sapiens, UniProt P01111). The experiment in a line: Binding to NRAS by surface plasmon resonance (SPR), Single Cycle Kinetics. To be noted: ratio of KD for GDP-bound NRAS wild-type protein to KD for KRAS, SPR.
Assay [3] has as its system human lung cancer strain NCI-H441. The assay is described as follows: cells. To be noted: NCI-H441, 96 h, read-out: NCI-H441 IC50 (nM), NCI-H441 cell proliferation, 4 days, CellTiter-Glo.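 Also: cell proliferation inhibition after four days measured by CellTiter-Glo.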
For assay [4], the target named is GDP-bound HRAS wild-type protein (Homo sapiens, UniProt P01112). The experiment in a line: Binding to HRAS by surface plasmon resonance (SPR), Single Cycle Kinetics. To be noted: ratio of KD for GDP-bound HRAS wild-type protein to KD for KRAS, SPR.

The structures appear in SMILES notation. *1 amine or outer side, *2 acyl side, *3 side chain or, on linkers, in order; H or OH if unused. Where a SMILES comes first, the peptide text is derived from it. Bridges are numbered along the chain shown (N, C = ends). [ ]: non-standard residue; d: D form. The star is where a group is joined. hPhe(3-Cl-4-CF3) = N[C@@H](CCc1ccc(C(F)(F)F)c(Cl)c1)C(=O)O; X6 = CCCN([C@@H](COCCC(C)C)C(=O)[*:2])[*:1]; NMeGly(cPent) = CN[C@H](C(=O)O)C1CCCC1; NMeD = CN[C@@H](CC(=O)O)C(=O)O; NMeL = CN[C@@H](CC(C)C)C(=O)O; Morpholide = C1CN(*)CCO1; Ac4c = NC1(C(=O)O)CCC1; Sar = CNCC(=O)O

GDP-bound NRAS wild-type protein, sequence (P01111 whole entry): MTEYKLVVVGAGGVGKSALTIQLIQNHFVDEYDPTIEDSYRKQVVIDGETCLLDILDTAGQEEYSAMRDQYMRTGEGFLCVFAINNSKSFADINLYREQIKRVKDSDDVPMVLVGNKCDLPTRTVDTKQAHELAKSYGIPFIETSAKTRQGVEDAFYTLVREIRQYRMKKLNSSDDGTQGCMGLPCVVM
GDP-bound HRAS wild-type protein, sequence (P01112 whole entry): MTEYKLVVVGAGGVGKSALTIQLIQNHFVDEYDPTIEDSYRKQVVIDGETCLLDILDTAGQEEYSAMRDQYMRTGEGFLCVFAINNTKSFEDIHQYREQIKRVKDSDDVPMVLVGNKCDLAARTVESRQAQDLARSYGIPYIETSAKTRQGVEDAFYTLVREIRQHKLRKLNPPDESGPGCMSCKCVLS
GDP-bound KRAS wild-type protein, sequence (P01116 whole entry): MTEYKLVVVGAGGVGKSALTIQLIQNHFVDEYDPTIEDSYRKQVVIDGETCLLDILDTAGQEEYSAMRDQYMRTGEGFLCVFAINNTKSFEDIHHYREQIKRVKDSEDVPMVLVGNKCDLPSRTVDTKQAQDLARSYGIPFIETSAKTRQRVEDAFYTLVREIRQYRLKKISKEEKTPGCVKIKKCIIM

As for `CCCN1C(=O)CN(C)C(=O)CN(C)C(=O)[C@H]([C@@H](C)CC)NC(=O)[C@H](CC(C)C)N(C)C(=O)C[C@@H](C(=O)N2CCOCC2)N(C)C(=O)[C@H](C2CCCC2)N(C)C(=O)C2(CCC2)NC(=O)[C@@H]2CCCN2C(=O)[C@H](CCc2ccc(C(F)(F)F)c(Cl)c2)NC(=O)CN(C)C(=O)[C@@H]1COCCC(C)C` [PP1817] ([NMeL]I[Sar][Sar][X6][Sar][hPhe(3-Cl-4-CF3)]P[Ac4c][NMeGly(cPent)][NMeD]-Morpholide; lactam N-11), the equilibrium dissociation constant (Kd) in assay [1] turned out to be 0.47 nM. Also, the “NRAS/KRAS (KD ratio)” value in assay [2] is “C (A compound having a KD ratio of 0.1 or more and less than 3 is denoted as C)”. In assay [3], the IC50 is 20.4 nM. Besides, the “HRAS/KRAS (KD ratio)” value in assay [4] is “C (A compound having a KD ratio of 0.1 or more and less than 3 is denoted as C)”.
As to `CCCOC[C@H]1C(=O)N[C@@H]([C@@H](C)CC)C(=O)N(C)CC(=O)N(C)[C@H]2C/C=C\CCN(C2=O)[C@@H](Cc2ccc(C(F)(F)F)cc2)C(=O)N(C)CC(=O)N[C@@H](CCc2cc(F)c(C(F)(F)F)c(F)c2)C(=O)N2C[C@H](OCC)C[C@H]2C(=O)NC2(CCC2)C(=O)N(C)[C@@H](C2CCCC2)C(=O)N(C)[C@H](C(=O)N(C)CCC)CC(=O)N1C` [PP1668], the dissociation constant (Kd) in assay [1] is 0.13 nM. For the same compound, the “NRAS/KRAS (KD ratio)” value in assay [2] was “A (a compound having 10 or more and less than 20 is denoted as A)”. In addition, the IC50 in assay [3] amounted to 5.3 nM. Also, the “HRAS/KRAS (KD ratio)” value in assay [4] was “A (a compound having 10 or more and less than 20 is denoted as A)”.
For `CCCN(C)C(=O)[C@@H]1CC(=O)N(C)[C@@H](C)C(=O)N[C@@H]([C@@H](C)CC)C(=O)N(C)CC(=O)N(C)[C@H]2C/C=C\CCN(C2=O)[C@@H](Cc2ccc(C(F)(F)F)cc2)C(=O)N(C)CC(=O)N[C@@H](CCc2cc(F)c(C(F)(F)F)c(F)c2)C(=O)N2C[C@H](F)C[C@H]2C(=O)NC2(CC(C)(C)C2)C(=O)N(C)[C@@H](C2CCCC2)C(=O)N1C` [PP1663], the Kd in assay [1] stood at 0.038 nM. Moreover, in assay [2], the “NRAS/KRAS (KD ratio)” value was “AA (a compound having 20 or more is denoted as AA)”. Besides, the IC50 in assay [3] worked out at 3.6 nM. Also, in assay [4], the “HRAS/KRAS (KD ratio)” value is “A (a compound having 10 or more and less than 20 is denoted as A)”.
Take `C#CC[C@H]1C(=O)N[C@@H]([C@@H](C)CC)C(=O)N(C)CC(=O)N(C)[C@H]2C/C=C\CCN(C2=O)[C@@H](Cc2ccc(C(F)(F)F)cc2)C(=O)N(C)CC(=O)N[C@@H](CCc2cc(F)c(C(F)(F)F)c(F)c2)C(=O)N2C[C@H](OCC)C[C@H]2C(=O)NC2(CCC2)C(=O)N(C)[C@@H](C2CCCC2)C(=O)N(C)[C@H](C(=O)N(C)CCC)CC(=O)N1C` [PP1703]: the Kd in assay [1] came out at 0.13 nM. Moreover, the “NRAS/KRAS (KD ratio)” value in assay [2] was “A (a compound having 10 or more and less than 20 is denoted as A)”. In assay [3], the IC50 stood at 7.2 nM. Moreover, in assay [4], the “HRAS/KRAS (KD ratio)” value was “A (a compound having 10 or more and less than 20 is denoted as A)”.
For `CCO[C@@H]1C[C@H]2C(=O)NC3(CC(F)(F)C3)C(=O)N(C)[C@@H](C(CC)CC)C(=O)N(C)[C@H](CC)CC(=O)N(C)[C@@H](CC3CC3)C(=O)N[C@@H]([C@@H](C)CC)C(=O)N(C)CC(=O)N(C)[C@H]3C/C=C\CCN(C3=O)[C@@H](Cc3ccc(C(F)(F)F)cc3)C(=O)N(C)CC(=O)N[C@@H](CCc3cc(F)c(C(F)(F)F)c(F)c3)C(=O)N2C1` [PP1632], in assay [1], the Kd turned out to be 3.7 nM. In addition, the “NRAS/KRAS (KD ratio)” value in assay [2] was “A (a compound having 10 or more and less than 20 is denoted as A)”. For the same compound, the IC50 in assay [3] was found to be 116 nM. The “HRAS/KRAS (KD ratio)” value in assay [4] is “A (a compound having 10 or more and less than 20 is denoted as A)”.
Take `CCOC[C@H]1C(=O)N[C@@H]([C@@H](C)CC)C(=O)N(C)CC(=O)N(C)[C@H]2C/C=C\CCN(C2=O)[C@@H](Cc2ccc(C(F)(F)F)cc2)C(=O)N(C)CC(=O)N[C@@H](CCc2ccc(C(F)(F)F)c(OC)c2)C(=O)N2C[C@@H](C)C[C@H]2C(=O)NC2(CC(C)(C)C2)C(=O)N(C)[C@@H](C2CCCC2)C(=O)N(C)[C@H](C(=O)N(C)CC)CC(=O)N1C` [PP1993]: the Kd in assay [1] was 0.12 nM. Further, the “NRAS/KRAS (KD ratio)” value in assay [2] was “A (a compound having 10 or more and less than 20 is denoted as A)”. Besides, the IC50 in assay [3] was 13.3 nM. Moreover, the “HRAS/KRAS (KD ratio)” value in assay [4] is “A (a compound having 10 or more and less than 20 is denoted as A)”.

The record behind these values is patent US20240158446A1, “CYCLIC COMPOUND HAVING SELECTIVE INHIBITORY ACTION ON KRAS OVER HRAS AND NRAS” (CHUGAI SEIYAKU KABUSHIKI KAISHA, priority 2021, published 2024).
